Test results as given in paper PMC13242511, “Disrupting Notch signalling by a small molecule inhibiting dihydroorotate dehydrogenase activity” (Scientific Reports, 2026).

Key:
Format in all cases: cell-based
MDA-MB-468 cells = experiment: Three dose response gene expression analysis (qRT-PCR); conditions: 0.1, 1 and 10 µM, 24 h
Experimental: Total RNA from cell lines was isolated using the RNeasy Mini kit (cat #74104, Qiagen), according to the manufacturer’s instructions. qRT-PCR was performed as described elsewhere[51] with some minor modifications: RNA was reverse transcribed to cDNA using iScript Reverse Transcription Supermix (cat # 1708841, Bio-rad). cDNA was then diluted 1:5 in nuclease free H20. qRT-PCR was performed on a C1000 Touch thermal cycler (Bio-rad) and gene expression was detected with SsoAdvanced Universal SYBR Green Supermix (cat # 1725274, Bio-rad). Gene expression was determined by normalizing to GAPDH mRNA expression levels and fold expression change was calculated using the ΔΔCT method (ΔΔCT = ΔCt sample − Δct control). Primers used in qPCR are shown in Supplemental Table 9.
Adherent breast cancer cells were seeded in 24-well cell culture plates (ThermoFisher, Nunc, Delta surface, cat #144530) and T-ALL cells growing in suspension (Jurkat, RPMI-8402) were seeded in non-adherent 24-well plates (ThermoFisher, Nunc, cat […]). 60.000 cells were seeded and treated with 0.1, 1 and 10 µM of each compound. […] Cells were harvested 24 h post treatment and RNA isolation and gene expression analysis (qRT-PCR) was performed as described above.

NOTCH1 = experiment: Cycloheximide chase experiment (half-life of cleaved NOTCH1); parameters: key to NOTCH1 (TMICD), DMSO as reference: western blot band intensity normalised to beta-Actin, relative to DMSO; conditions: for NOTCH1/ (TMICD) band intensity: 5 µM
Experimental: HEK293T Notch reporter cells (clone #A1-11) were grown to 80% confluence, detached and counted. 50,000 cells were then seeded in each well of a 24-well tissue culture plate (Sarstedt, cat # 83.3924), cultivated to approximately 85% confluence and treated with 5 µM of the respective compound and 50 µg/ml Cycloheximide (CHX) solution (Sigma-Aldrich, cat #C4859-1ML). Each well was then incubated with 500 µl of compound and CHX solution and compound and CHX solution were added after the indicated intervals to another well for a total time of eight hours. Next, medium was aspirated off and cells were lysed in RIPA buffer (Thermofisher, cat #89900) containing Protease and Phosphatase inhibitors (Thermofisher, cat #78442) for 30 min on ice. Lysates were thoroughly vortexed, centrifugated for 10 min at > 13,000×g and supernatant was transferred to a fresh cup and stored at -80 °C.
Cells were washed in ice-cold PBS and incubated for 30 min on ice with RIPA cell lysis buffer (Thermofisher, cat #89900) containing protease and phosphatase inhibitors (Thermofisher, cat #78442), scraped off and homogenized using a 25G syringe, and subsequently centrifugated for 10 min at > 13,000xg. […] After electrophoresis, gels were placed directly onto a TransBlot Turbo PVDF or nitrocellulose membrane (Bio-rad, cat #1704157 and cat #1704159) and transferred using the “HIGH MW” protocol (Bio-Rad). Subsequently, membranes were blocked for 1 h at room temperature using Clear Milk Blocking Buffer (ThermoFisher, cat #37587) supplemented with 0.1% Tween20 (Sigma-Aldrich, cat #P1379). Detection of antibody binding was performed by using Clarity Western ECL-Substrate (Bio-rad, cat #1705060S). Beta-Actin protein signals were used as a loading control. Western blot membranes were in some experiments stripped after development (indicated in the figure in each respective case) by washing the membranes twice for 10 min in PBS, followed by incubation in membranes in western blot stripping buffer (ThermoFisher, cat #21059) for 30 min at room temperature and gentle agitation. Stripped membranes were washed twice with PBS and incubated for 30 min in blocking buffer before incubation with primary antibody. A list of all antibodies used in this study is provided in Supplemental Table 6. Uncropped western blot images are provided in […]. Protein expression levels of western blot bands were quantified using Fiji (V.2.16) with beta-Actin signals for normalisation (Supplemental Table 8). Uncropped western blot images are provided in Supplemental Fig. 10.

MDA-MB-436 cells = experiment: Growth inhibition, metabolic activity (CellTiter-Glo); conditions: Homo sapiens; MDA-MB-436, six days; read-out: approximated IC50, metabolic activity
Description: (§1) We next investigated whether compounds A-E affected growth and viability of cell lines from T-cell acute lymphoblastic leukaemia (T-ALL) and breast cancer, two tumour types in which elevated Notch signalling has been implicated in tumorigenesis. […] When testing analogues of compounds B and C, five of the seven B analogues and one of the two C analogues produced dose–response curves and IC50s, which however were higher compared to the original hits (Supplemental Fig. 5A; IC50s are presented in Supplemental Table 6).
(§2) Compounds were spotted on white 384-well tissue culture plates (Greiner, cat #781080) using an Echo 525 Acoustic liquid handler (Labcyte). Cells were grown to 80% confluence, detached if required, counted and 20 µl containing 2000–4000 cells per well was then seeded in each well and cultivated for three (4,000 cells seeded) and six days (2,000 cells seeded). […] Luciferase activity (reading out metabolic activity) was determined using the CellTiter-Glo 2.0 kit (CTG, Promega, cat #G9242) following the manufacturer’s instructions and luminescence was measured on a SpectraMaxi3 or Varioscan plate reader (Molecular Devices, Thermofisher).

BT-20 cells = experiment: as above; conditions: Homo sapiens; BT-20, six days; read-out: approximated IC50, metabolic activity
Description: as §1, §2

HES1 in MDA-MB-231 cells = experiment: Western blot analysis of HES1 protein; conditions: MDA-MB-231, 2 µM, 48 h; Fig. 8C
Experimental: (§3) Cells were washed in ice-cold PBS and incubated for 30 min on ice with RIPA cell lysis buffer (Thermofisher, cat #89900) containing protease and phosphatase inhibitors (Thermofisher, cat #78442), scraped off and homogenized using a 25G syringe, and subsequently centrifugated for 10 min at > 13,000xg. […] After electrophoresis, gels were placed directly onto a TransBlot Turbo PVDF or nitrocellulose membrane (Bio-rad, cat #1704157 and cat #1704159) and transferred using the “HIGH MW” protocol (Bio-Rad). Subsequently, membranes were blocked for 1 h at room temperature using Clear Milk Blocking Buffer (ThermoFisher, cat #37587) supplemented with 0.1% Tween20 (Sigma-Aldrich, cat #P1379). Detection of antibody binding was performed by using Clarity Western ECL-Substrate (Bio-rad, cat #1705060S). Beta-Actin protein signals were used as a loading control. Western blot membranes were in some experiments stripped after development (indicated in the figure in each respective case) by washing the membranes twice for 10 min in PBS, followed by incubation in membranes in western blot stripping buffer (ThermoFisher, cat #21059) for 30 min at room temperature and gentle agitation. […] Protein expression levels of western blot bands were quantified using Fiji (V.2.16) with beta-Actin signals for normalisation (Supplemental Table 8). […]

HES-1 in JURKAT cells = experiment: Western blot analysis of HES1 protein; conditions: 2 µM, 48 h, Fig. 8C
Experimental: as §3

[1] = timepoint 0 (hours after cycloheximide)
[2] = timepoint 1 (hours after cycloheximide)
[3] = timepoint 2 (hours after cycloheximide)
[4] = timepoint 4 (hours after cycloheximide)
[5] = timepoint 6 (hours after cycloheximide)
[6] = timepoint 8 (hours after cycloheximide)

| Structure (SMILES) | NOTCH1/ (TMICD) band intensity (NOTCH1; [1]) | NOTCH1 (TMICD) normalized to beta-Actin (used for plots) (NOTCH1; timepoint 0, 5 µM) | NOTCH1 (TMICD), DMSO as reference (NOTCH1; timepoint 0, 5 µM) | NOTCH1/ (TMICD) band intensity (NOTCH1; [2]) | NOTCH1 (TMICD) normalized to beta-Actin (used for plots) (NOTCH1; timepoint 1, 5 µM) | NOTCH1 (TMICD), DMSO as reference (NOTCH1; timepoint 1, 5 µM) | NOTCH1/ (TMICD) band intensity (NOTCH1; [3]) | NOTCH1 (TMICD) normalized to beta-Actin (used for plots) (NOTCH1; timepoint 2, 5 µM) | NOTCH1 (TMICD), DMSO as reference (NOTCH1; timepoint 2, 5 µM) | NOTCH1/ (TMICD) band intensity (NOTCH1; [4]) | NOTCH1 (TMICD) normalized to beta-Actin (used for plots) (NOTCH1; timepoint 4, 5 µM) | NOTCH1 (TMICD), DMSO as reference (NOTCH1; timepoint 4, 5 µM) | NOTCH1/ (TMICD) band intensity (NOTCH1; [5]) | NOTCH1 (TMICD) normalized to beta-Actin (used for plots) (NOTCH1; timepoint 6, 5 µM) | NOTCH1 (TMICD), DMSO as reference (NOTCH1; timepoint 6, 5 µM) | NOTCH1/ (TMICD) band intensity (NOTCH1; [6]) | NOTCH1 (TMICD) normalized to beta-Actin (used for plots) (NOTCH1; timepoint 8, 5 µM) | NOTCH1 (TMICD), DMSO as reference (NOTCH1; timepoint 8, 5 µM) | also measured |
| --- | --- | --- | --- | --- | --- | --- | --- | --- | --- | --- | --- | --- | --- | --- | --- | --- | --- | --- | --- |
| CC(C)(C)c1ccc(Oc2ccc(N)cn2)cc1 [CB-103, reference compound] |  |  |  |  |  |  |  |  |  |  |  |  |  |  |  |  |  |  | HES4 expression (MDA-MB-468 cells): upregulation |
| CC(C)(C(=O)NCC(F)(F)C(F)(F)F)C(=O)N[C@@H]1C(=O)Nc2ccccc2-c2ccccc21 [RO4929097, reference compound] | 20583.6 | 1.3 | 1.0 | 14235.7 | 0.8 | 0.6 | 11993.7 | 0.6 | 0.5 | 14001.0 | 0.8 | 0.6 | 9107.8 | 0.8 | 0.6 | 9737.6 | 0.7 | 0.53 | protein stability of NOTCH1 (in words) (NOTCH1; cycloheximide chase, Supplemental Fig. 8B): enhanced protein stability; c-MYC expression (MDA-MB-468 cells): did not reduce |
| Cc1ccc2[nH]c3c(c2c1)CCOC31CCN(Cc2ccccc2-c2ccccc2)CC1 [compound B] |  |  |  |  |  |  |  |  |  |  |  |  |  |  |  |  |  |  | IC50 (MDA-MB-436 cells): 2000 nM; IC50 (BT-20 cells): 3200 nM |
| COc1cccc(CNc2ccc(N3CCCCC3)cc2)c1OCc1cccs1 [compound C] | 11149.0 | 0.8 | 1.0 | 9563.6 | 0.7 | 0.9 | 5022.2 | 0.4 | 0.5 | 5169.6 | 0.347 | 0.442 | 6218.3 | 0.362 | 0.46 | 4511.9 | 0.277 | 0.352 | HES1 protein levels (HES1 in MDA-MB-231 cells): reduction in HES1 levels; level of HES-1 protein (HES-1 in JURKAT cells): reduced |
